Results published in US20230210831A1, “CHRONIC KIDNEY DISEASE TREATMENT OR PREVENTION METHOD” (Japan Tobacco Inc., priority 2019, published 2023).

Assays:
Type in all cases: cell-based
Escherichia coli WP2uvrA = assay: Ames test (reverse mutation test), WP2uvrA
Description: (§1) The solvent used herein was dimethyl sulfoxide (DMSO, 100 µL/plate).
(§2) The mixtures were preincubated at 37° C. for 20 minutes while shaking. […] Two plates per treatment were used.

[1] = system: Salmonella typhimurium TA1535; assay: Ames test (reverse mutation test), TA1535
Description: as §1, §2

[2] = system: Salmonella typhimurium TA1537; assay: Ames test (reverse mutation test), TA1537
Description: as §1, §2

[3] = system: Salmonella typhimurium TA100; assay: Ames test (reverse mutation test), TA100
Description: as §1, §2

[4] = system: Salmonella typhimurium TA98; assay: Ames test (reverse mutation test), TA98
Description: as §1, §2

## Nc1cc(-c2cccc(OC(F)(F)F)c2)n(-c2cccc(F)c2)n1 [Metabolite G]
Escherichia coli WP2uvrA; S9 Mix +, dose 2.3 µg/plate
  Number of revertant colonies WP2uvrA: 34
Escherichia coli WP2uvrA; S9 Mix +, dose 6.9 µg/plate
  Number of revertant colonies WP2uvrA: 39
Escherichia coli WP2uvrA; S9 Mix +, dose 21 µg/plate
  Number of revertant colonies WP2uvrA: 22
Escherichia coli WP2uvrA; S9 Mix +, dose 62 µg/plate
  Number of revertant colonies WP2uvrA: 24
Escherichia coli WP2uvrA; S9 Mix +, dose 185 µg/plate
  Number of revertant colonies WP2uvrA: 16
Escherichia coli WP2uvrA; S9 Mix +, dose 556 µg/plate
  Number of revertant colonies WP2uvrA: 14
Escherichia coli WP2uvrA; S9 Mix +, dose 1667 µg/plate
  Number of revertant colonies WP2uvrA: 9
Escherichia coli WP2uvrA; S9 Mix +, dose 5000 µg/plate
  Number of revertant colonies WP2uvrA: 14
Escherichia coli WP2uvrA; S9 Mix -, dose 2.3 µg/plate
  Number of revertant colonies WP2uvrA: 26
Escherichia coli WP2uvrA; S9 Mix -, dose 6.9 µg/plate
  Number of revertant colonies WP2uvrA: 23
Escherichia coli WP2uvrA; S9 Mix -, dose 21 µg/plate
  Number of revertant colonies WP2uvrA: 16
Escherichia coli WP2uvrA; S9 Mix -, dose 62 µg/plate
  Number of revertant colonies WP2uvrA: 14
Escherichia coli WP2uvrA; S9 Mix -, dose 185 µg/plate
  Number of revertant colonies WP2uvrA: 15
Escherichia coli WP2uvrA; S9 Mix -, dose 556 µg/plate
  Number of revertant colonies WP2uvrA: 10
Escherichia coli WP2uvrA; S9 Mix -, dose 1667 µg/plate
  Number of revertant colonies WP2uvrA: 17
Escherichia coli WP2uvrA; S9 Mix -, dose 5000 µg/plate
  Number of revertant colonies WP2uvrA: 6
[1]; S9 Mix +, dose 556 µg/plate
  Number of revertant colonies TA1535: 5
[1]; S9 Mix +, dose 1667 µg/plate
  Number of revertant colonies TA1535: 4
[1]; S9 Mix -, dose 185 µg/plate
  Number of revertant colonies TA1535: 9
[1]; S9 Mix -, dose 556 µg/plate
  Number of revertant colonies TA1535: 0
[1]; S9 Mix -, dose 1667 µg/plate
  Number of revertant colonies TA1535: 0
[1]; TA1535 without S9 mix
  potential to induce reverse mutations: showed potential to induce reverse mutations
[2]; S9 Mix +, dose 2.3 µg/plate
  Number of revertant colonies TA1537: 13
[2]; S9 Mix +, dose 6.9 µg/plate
  Number of revertant colonies TA1537: 13
[2]; S9 Mix +, dose 21 µg/plate
  Number of revertant colonies TA1537: 16
[2]; S9 Mix +, dose 62 µg/plate
  Number of revertant colonies TA1537: 15
[2]; S9 Mix +, dose 185 µg/plate
  Number of revertant colonies TA1537: 13
[2]; S9 Mix +, dose 556 µg/plate
  Number of revertant colonies TA1537: 0
[2]; S9 Mix +, dose 1667 µg/plate
  Number of revertant colonies TA1537: 0
[2]; S9 Mix +, dose 5000 µg/plate
  Number of revertant colonies TA1537: 0
[2]; S9 Mix -, dose 2.3 µg/plate
  Number of revertant colonies TA1537: 15
[2]; S9 Mix -, dose 6.9 µg/plate
  Number of revertant colonies TA1537: 15
[2]; S9 Mix -, dose 21 µg/plate
  Number of revertant colonies TA1537: 17
[2]; S9 Mix -, dose 62 µg/plate
  Number of revertant colonies TA1537: 7
[2]; S9 Mix -, dose 185 µg/plate
  Number of revertant colonies TA1537: 0
[2]; S9 Mix -, dose 556 µg/plate
  Number of revertant colonies TA1537: 0
[2]; S9 Mix -, dose 1667 µg/plate
  Number of revertant colonies TA1537: 0
[2]; S9 Mix -, dose 5000 µg/plate
  Number of revertant colonies TA1537: 0
[3]; S9 Mix +, dose 2.3 µg/plate
  Number of revertant colonies TA100: 153
[3]; S9 Mix +, dose 6.9 µg/plate
  Number of revertant colonies TA100: 248
[3]; S9 Mix +, dose 21 µg/plate
  Number of revertant colonies TA100: 506
[3]; S9 Mix +, dose 62 µg/plate
  Number of revertant colonies TA100: 630
[3]; S9 Mix +, dose 185 µg/plate
  Number of revertant colonies TA100: 380
[3]; S9 Mix +, dose 556 µg/plate
  Number of revertant colonies TA100: 82
[3]; S9 Mix +, dose 1667 µg/plate
  Number of revertant colonies TA100: 94
[3]; S9 Mix +, dose 5000 µg/plate
  Number of revertant colonies TA100: 226
[3]; S9 Mix -, dose 2.3 µg/plate
  Number of revertant colonies TA100: 91
[3]; S9 Mix -, dose 6.9 µg/plate
  Number of revertant colonies TA100: 101
[3]; S9 Mix -, dose 21 µg/plate
  Number of revertant colonies TA100: 93
[3]; S9 Mix -, dose 62 µg/plate
  Number of revertant colonies TA100: 90
[3]; S9 Mix -, dose 185 µg/plate
  Number of revertant colonies TA100: 80
[3]; S9 Mix -, dose 556 µg/plate
  Number of revertant colonies TA100: 59
[3]; S9 Mix -, dose 1667 µg/plate
  Number of revertant colonies TA100: 61
[3]; S9 Mix -, dose 5000 µg/plate
  Number of revertant colonies TA100: 47
[3]; TA100 with S9 mix
  potential to induce reverse mutations: showed potential to induce reverse mutations
[4]; S9 Mix +, dose 2.3 µg/plate
  Number of revertant colonies TA98: 35
[4]; S9 Mix +, dose 6.9 µg/plate
  Number of revertant colonies TA98: 63
[4]; S9 Mix +, dose 21 µg/plate
  Number of revertant colonies TA98: 76
[4]; S9 Mix +, dose 62 µg/plate
  Number of revertant colonies TA98: 75
[4]; S9 Mix +, dose 185 µg/plate
  Number of revertant colonies TA98: 45
[4]; S9 Mix +, dose 556 µg/plate
  Number of revertant colonies TA98: 12
[4]; S9 Mix +, dose 1667 µg/plate
  Number of revertant colonies TA98: 11
[4]; S9 Mix +, dose 5000 µg/plate
  Number of revertant colonies TA98: 0
[4]; S9 Mix -, dose 2.3 µg/plate
  Number of revertant colonies TA98: 31
[4]; S9 Mix -, dose 6.9 µg/plate
  Number of revertant colonies TA98: 30
[4]; S9 Mix -, dose 21 µg/plate
  Number of revertant colonies TA98: 31
[4]; S9 Mix -, dose 62 µg/plate
  Number of revertant colonies TA98: 30
[4]; S9 Mix -, dose 185 µg/plate
  Number of revertant colonies TA98: 13
[4]; S9 Mix -, dose 556 µg/plate
  Number of revertant colonies TA98: 15
[4]; S9 Mix -, dose 1667 µg/plate
  Number of revertant colonies TA98: 8
[4]; S9 Mix -, dose 5000 µg/plate
  Number of revertant colonies TA98: 0
